Test results taken from PMC10671050, “Alkyl Derivatives of Perylene Photosensitizing Antivirals: Towards Understanding the Influence of Lipophilicity” (International Journal of Molecular Sciences, 2023).
Values after ≈ are worked out from the molar mass of the structure shown. “Also recorded” adds a separate entry of the source. Like-named read-outs stand apart in the source and are kept apart here.

How the values were obtained:
[1] = Solubilization in 15% DMSO in water; settings: for solubility: aqueous with cosolvent or surfactant or cyclodextrin, kinetic from dmso stock
Method: To perform this measurement, the compound was dissolved in DMSO and then diluted with water to achieve a solution containing 15% DMSO. The solution was centrifuged, and the resulting supernatant was lyophilized (evaporated) to dryness. Subsequently, the dry residue was dissolved in DMSO, and the concentration of the compound dissolved in DMSO was determined spectrophotometrically.
The mixtures were then centrifuged at 20,000 rcf for 5 min; 500 μL of the supernatant were collected and lyophilized; 76 µL of DMSO were added to the dry residue, and the absorbance was measured at the maximum absorption wavelength for compounds in solutions diluted 200 times with methanol. The data obtained were recalculated according to the law of dilutions and Beer’s law to obtain the initial concentrations of the compounds solubilized in 15% DMSO in water.

HSV-1 virus-cell fusion = experiment: HSV-1-based fusion assay; format: cell-based, herpes simplex virus-1; settings: for plaque numbers in fusion assay: Vero cells; for plaque size in fusion assay: Vero monolayers in presence of compound
Method: In the fusion assay, HSV-1 was attached to Vero cells at 4 °C, but virus–cell fusion was blocked due to the low temperature.
HSV-1 (100 PFU/mL) was then added to the cells and incubated at 4 °C for 2 h. After incubation, the cell monolayers were washed three times with ice-cold PBS to remove un-adsorbed virus, and fresh ice-cold medium containing the tested compounds (0, 0.08, 2, and 10 µM) was added to the cells and incubated for 2 h at 4 °C. After another 2 h incubation at 37 °C, the medium was aspirated, the cells were washed with PBS and fresh medium containing 1.5% carboxymethylcellulose was added to the cells.

[2] = format: physicochemical; settings: methanol, DPBF trap, 450–470 nm, relative to riboflavin
HSV-1, strain MacIntyre [3] = experiment: HSV-1 titer reduction assay in Vero cells; settings: 10 µM, 48 h; for viral replication and spread in HSV-1-infected Vero cell culture: inside cell culture (Figure 6C); for anti-HSV-1 activity in Vero cells: viral titer in medium supernatant
HSV-1 envelope = HSV-1 envelope interaction studies (intercalation assay); format: cell-based, herpes simplex virus-1; settings: 2 and 10 µM, pre-incubation at 37 °C, Vero cells
HSV-1, strain MacIntyre [4] = experiment: Photodynamic inactivation of HSV-1 (virus treated with compound, plaque assay); format: cell-based, herpes simplex virus-1; settings: for EC50: Human alphaherpesvirus 1, 10 min, HSV-1 10^4 PFU/mL, plaque assay
VSV Indiana strain = experiment: microbe, parasite or virus in culture; format: cell-based, vesicular stomatitis Indiana virus; settings: Vesicular stomatitis virus, HEK-293T, 1 h, read-out: VSV, EC50
[5] = Light-induced cytotoxicity (photocytotoxicity) in Vero cells; format: cell-based, African Green Monkey; settings: African green monkey, Vero cells; blue light 465–480 nm, 10 min, then 48 h; read-out: cell viability of Vero cells after irradiation
Method: (§1) Subsequently, cells treated with the compounds were irradiated with LEDs (465–480 nm, 30 mW/cm^2) for 10 min at RT. As a negative control, compound-treated cells were incubated for 10 min in daylight at RT. Then, both the irradiated and non-irradiated cell monolayers were incubated at 37 °C in the dark for 48 h. Subsequently, the cell culture medium was aspirated and the cytotoxicity of the tested perylene derivatives was determined based on cell viability using Cell Counting Kit-8 (Dojindo Molecular Technologies, Munich, Germany) according to the manufacturer’s instructions. Note: all manipulation with samples was performed in daylight (Figure 7K).

Vero cells = experiment: as above; format: cell-based, African Green Monkey; settings: blue light 10 min vs daylight, 0–10 µM, 48 h
Method: as §1

[6] = 10 min in daylight, read-out: EC50 (µM) in Daylight
[7] = blue light 465–480 nm, 30 mW/cm^2, 10 min, read-out: EC50 (µM) under Blue Light

Row | SMILES | solubility in 15% DMSO in water [1] | solubility [1] [µM] | plaque numbers in fusion assay (HSV-1 virus-cell fusion; 0.08 µM) | plaque size in fusion assay (HSV-1 virus-cell fusion) | plaque numbers in fusion assay (HSV-1 virus-cell fusion; most pronounced at 2 and 10 µM) | 1O2 Quantum Yield [2] [%] | viral replication and spread in HSV-1-infected Vero cell culture (HSV-1, strain MacIntyre [3]) | anti-HSV-1 activity in Vero cells (HSV-1, strain MacIntyre [3]) | plaque formation after pretreatment of HSV-1 (HSV-1 envelope) | Decrease in EC50 (Fold) (HSV-1, strain MacIntyre [4]) [fold] | EC50 (HSV-1, strain MacIntyre [4]; [6]) [µM] | EC50 (HSV-1, strain MacIntyre [4]; [7]) [µM] | EC50 (VSV Indiana strain) [nM] | viability at 48 h [5] [%] | photocytotoxicity to Vero cells (Vero cells)
1 | CCCCc1ccc2c3cccc4c(C#Cc5cn([C@H]6C[C@H](O)[C@@H](CO)O6)c(=O)[nH]c5=O)ccc(c5cccc1c52)c43 [Compound 11a, 5-[9(10)-Butylperylen-3-ylethynyl]-deoxy-uridine] | relatively high solubility | 0.51 (≈ 0.285 µg/mL) | plaque numbers were similar to controls | significantly smaller plaques | reduction in plaque numbers | 23.6 ± 1.4 | did not suppress viral replication and spread | completely inhibited viral replication; also recorded: higher antiviral potency compared to acyclovir | completely inhibited the ability of the virus to form plaques | 18.6 | 1.83 | 0.098 | 500 ± 100 | – | –
2 | CCCCc1ccc2c3cccc4c(C#Cc5cn([C@@H]6O[C@H](CO)[C@@H](O)[C@@H]6O)c(=O)[nH]c5=O)ccc(c5cccc1c52)c43 [Compound 9a, 5-[9(10)-Butylperylen-3-ylethynyl]-arabino-uridine] | relatively high solubility | 0.6 (≈ 0.345 µg/mL) | plaque numbers were similar to controls | significantly smaller plaques | reduction in plaque numbers | 31.9 ± 8.5 | did not suppress viral replication and spread | completely inhibited viral replication; also recorded: higher antiviral potency compared to acyclovir | completely inhibited the ability of the virus to form plaques | 21.9 | 2.23 | 0.102 | 2000 ± 1800 | 115 to 128 | did not increase the cytotoxicity
